From patent publication US12552790B2, “Positive modulators of the muscarinic acetylcholine receptor M4” (Vanderbilt University, priority 2023, dated 2026) come the findings set out here.

As a reminder, the Emax is the maximal effect, on the per cent scale that the assay sets. A word on the EC50: it is the midpoint of the concentration-response curve.

Each structure is given as a SMILES string.

One assay concerns the target T1, Human M4 (Homo sapiens, UniProt P08173).
T1 construct: expressed in transfected cells
T1 sequence (P08173 1-479): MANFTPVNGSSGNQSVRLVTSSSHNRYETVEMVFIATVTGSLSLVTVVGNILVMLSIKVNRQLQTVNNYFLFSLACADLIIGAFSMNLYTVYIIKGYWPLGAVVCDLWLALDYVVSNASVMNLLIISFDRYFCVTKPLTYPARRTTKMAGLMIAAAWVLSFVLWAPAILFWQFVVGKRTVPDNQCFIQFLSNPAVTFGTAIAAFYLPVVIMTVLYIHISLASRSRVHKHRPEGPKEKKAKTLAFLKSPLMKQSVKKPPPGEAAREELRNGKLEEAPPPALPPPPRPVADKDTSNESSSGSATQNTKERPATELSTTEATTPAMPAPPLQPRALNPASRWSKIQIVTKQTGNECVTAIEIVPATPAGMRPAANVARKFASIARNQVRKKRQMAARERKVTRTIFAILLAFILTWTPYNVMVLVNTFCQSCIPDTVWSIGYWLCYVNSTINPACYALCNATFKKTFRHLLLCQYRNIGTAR
As to the kind of experiment: M4 cell-based functional assay, calcium mobilization, potentiation of ACh EC20. The settings on record: for Emax at 30 µM: % ACh maximum at 30 μM; for EC50: CHO-K1 hM4-Gqi5 cells, calcium flux, ACh EC20. The method, then: Human and rat M4 cDNAs, along with the chimeric G protein Gqi5, were transfected into Chinese hamster ovary (CHO-K1) cells purchased from the American Type Culture Collection using Lipofectamine2000. The transfected cells were subjected to selection antbiotic treatment to generate stable cell lines; G418 sulfate (1 mg/ml) for selecting M4 expressing cells and Hygromycin B (500 μg/mL) for selecting Gqi5 expressing cells. The resulting polyclones were further screened to obtain monoclones of hM4-Gqi5 and rM4-Gqi5 for compound screening assay. Stable monoclone cells were maintained in Ham's F-12 medium containing 10% heat-inactivated fetal bovine serum (FBS), 1× Antibiotic/Antimycotic, 20 mM HEPES, 500 μg/mL G418 sulfate, and 200 μg/mL Hygromycin B in 37° C. humidified incubators in the presence of 5% CO2.
(§1) The high throughput assay was employed to measure receptor-induced mobilization of intracellular calcium to determine compound activity. Test compound was added to cells expressing the muscarinic receptors that were loaded with calcium sensitive fluorescent dye. After a ˜2.5 minute incubation period, a submaximal (EC20) concentration of acetylcholine was added, and the response measured. This kinetic assay allows for simultaneous screening and potency determination of multiple pharmacological modes of action including agonist and potentiator activity. CHO-K1 cells stably expressing muscarinic receptors were plated in growth medium lacking G418 and hygromycin at 15,000 cells/20 μL/well in Greiner 384-well black-walled, tissue culture (TC)-treated, clear-bottom plates (Greiner Bio-One). Cells were incubated overnight at 37° C. and 5% CO2. The next day, calcium assay buffer (Hank's balanced salt solution (HBSS), 20 mM HEPES, 2.5 mM Probenecid, 4.16 mM sodium bicarbonate (Sigma-Aldrich, St. Louis, MO)) was prepared to dilute compounds, agonists, and Fluo-4-acetomethoxyester (Fluo-4-AM), fluorescent calcium indicator dye. Compounds were serially diluted 1:3 into 10 point concentration response curves in DMSO using the Bravo Liquid Handler (Agilent, Santa Clara, CA), transferred to a 384 well daughter plates using an Echo acoustic liquid handler (Beckman Coulter, Indianapolis, Indiana), and diluted in assay Buffer to a 2× final concentration. The agonist plates were prepared using acetylcholine (ACh, Sigma-Aldrich, St. Louis, MO) concentrations for the EC20 and ECMAX responses by diluting in assay buffer to a 5× final concentration. The 2× dye solution (2.3 μM) was prepared by mixing a 2.3 mM Fluo-4-AM stock in DMSO with 10% (w/v) pluronic acid F-127 in a 1:1 ratio in assay buffer. Using a microplate washer (BioTek, Winooski, VT), cells were washed with assay buffer for 3 times to remove medium. After the final wash, 20 μL of assay buffer remained in the cell plates. Immediately, 20 μL of the 2× dye solution (final 1.15 μM) was added to each well of the cell plate using a Multidrop Combi dispenser (Thermo Fisher, Waltham, MA). After cells were incubated with the dye solutions for 45 min at 37° C. in the presence of 5% CO2, the dye solutions were removed and replaced with assay buffer using a microplate washer, leaving 20 μL of assay buffer in the cell plate.
The prepared compound, agonist, and cell plates were placed inside the Functional Drug Screening System uCell (FDSS uCell, Hamamatsu, Japan) to measure the calcium flux. The triple add protocol was used to measure Ca kinetics; Compound, ACh for EC20, and ACh for EC80 adds in an order. Briefly, after establishment of a fluorescence baseline for 2 seconds (excitation, 480 nm; emission, 530 nm), first add occurred by adding 20 μL of test compound to the cells, and the response was measured for 140 seconds. This is followed by second add; 10 μL (5×) of an EC20 concentration of ACh agonist was added to the cells, and the response of the cells was measured for 125 seconds. […]
(Calcium assays in cells follow changes in intracellular calcium, usually with a dye or a luminescent sensor.)

In the next assay the target is T2, Human M2 (Homo sapiens, UniProt P08172).
T2 construct: expressed in transfected cells; host or cells: CHO-K1
T2 sequence (P08172 1-466): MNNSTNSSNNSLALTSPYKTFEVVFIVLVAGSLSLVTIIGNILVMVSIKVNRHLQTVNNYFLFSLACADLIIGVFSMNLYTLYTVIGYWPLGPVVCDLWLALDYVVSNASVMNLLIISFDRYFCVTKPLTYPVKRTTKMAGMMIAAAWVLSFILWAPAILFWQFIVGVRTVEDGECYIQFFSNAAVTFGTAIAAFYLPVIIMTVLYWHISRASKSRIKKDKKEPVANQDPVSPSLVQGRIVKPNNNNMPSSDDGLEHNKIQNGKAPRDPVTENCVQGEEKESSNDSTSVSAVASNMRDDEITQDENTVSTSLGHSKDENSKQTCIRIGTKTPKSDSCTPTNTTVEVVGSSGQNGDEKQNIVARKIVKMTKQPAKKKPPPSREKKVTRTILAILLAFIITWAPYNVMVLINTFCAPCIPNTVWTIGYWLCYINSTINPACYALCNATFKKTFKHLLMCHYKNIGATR
Briefly: M2 cell-based functional assay, calcium mobilization (selectivity). As to conditions: for Emax at 30 µM: % ACh maximum at 30 μM. How it is done:
as §1
The prepared compound, agonist, and cell plates were placed inside the Functional Drug Screening System uCell (FDSS uCell, Hamamatsu, Japan) to measure the calcium flux. The triple add protocol was used to measure Ca kinetics; Compound, ACh for EC20, and ACh for EC80 adds in an order. Briefly, after establishment of a fluorescence baseline for 2 seconds (excitation, 480 nm; emission, 530 nm), first add occurred by adding 20 μL of test compound to the cells, and the response was measured for 140 seconds. This is followed by second add; 10 μL (5×) of an EC20 concentration of ACh agonist was added to the cells, and the response of the cells was measured for 125 seconds. Immediately, the third add occurred by adding […] (5×) of an EC80 concentration of ACh and the response of the cells was measured for 90 seconds. Acetylcholine-mediated maximum response (ECmax) was measured by adding 1 mM ACh as third add in the control wells. DMSO vehicle was added to the control wells in the first add for assessing ACh EC20, EC80, and ECmax responses. Calcium fluorescence was recorded as fold over basal fluorescence and raw data were normalized to the maximal response to ACh agonist. Agonist activity was analyzed as a concentration-dependent increase in calcium mobilization upon compound addition. Positive allosteric modulator activity was analyzed as a concentration-dependent increase in the EC20 acetylcholine response. Antagonist activity was analyzed as a concentration-dependent decrease in the EC80 acetylcholine response. […]

[1] abbreviates: M2 cell-based functional assay, calcium flux.

`[2H]C1([2H])CC(Oc2ccc3c(c2)OC([2H])([2H])C([2H])([2H])O3)CC([2H])([2H])N1c1nc2c(cc1C)C(=O)NC2` [Compound 2, 2-(4-((2,3-dihydrobenzo[b][1,4]dioxin-6-yl-2,2,3,3-d4)oxy)piperidin-1-yl-2,2,6,6-d4)-3-methyl-6,7-dihydro-5H-pyrrolo[3,4-b]pyridin-5-one]: the Emax at 30 µM at Human M4 is 91%; at Human M2 it was 57%. In addition, the EC50 on Human M4 turned out to be 3 nM; on Human M2 (setting [1]), 567 nM.
On the same counts, the results for `[2H]C1([2H])Oc2ccc(OC3CCN(c4nc5c(cc4C)C(=O)N(C)C5)CC3)cc2OC1([2H])[2H]` [Compound 5, 2-(4-((2,3-dihydrobenzo[b][1,4]dioxin-6-yl-2,2,3,3-d4)oxy)piperidin-1-yl)-3,6-dimethyl-6,7-dihydro-5H-pyrrolo[3,4-b]pyridin-5-one] are 76%, 70%, 4 nM and 219 nM.
In the same order, the values of `[2H]C1([2H])Oc2ccc(OC3CCN(c4nc5n[nH]c(=O)n5cc4C)CC3)cc2OC1([2H])[2H]` [Compound A1, 7-(4-((2,3-dihydrobenzo[b][1,4]dioxin-6-yl-2,2,3,3-d4)oxy)piperidin-1-yl)-6-methyl-[1,2,4]triazolo[4,3-a]pyrimidin-3(2H)-one] are 100%, 78%, 5 nM and 367 nM.
In the same order, the values of `[2H]C1([2H])CC(Oc2ccc3c(c2)OCCO3)CC([2H])([2H])N1c1nc2c(cc1C)C(=O)NC2` [Compound 11, 2-(4-((2,3-dihydrobenzo[b][1,4]dioxin-6-yl)oxy)piperidin-1-yl-2,2,6,6-d4)-3-methyl-6,7-dihydro-5H-pyrrolo[3,4-b]pyridin-5-one] are 73%, 60%, 5 nM and 508 nM.
Turning to `[2H]C1([2H])Oc2ccc(OC3CCN(c4nc5nn(CCOC)c(=O)n5cc4C)CC3)cc2OC1([2H])[2H]` [Compound A3, 7-(4-((2,3-dihydrobenzo[b][1,4]dioxin-6-yl-2,2,3,3-d4)oxy)piperidin-1-yl)-2-(2-methoxyethyl)-6-methyl-[1,2,4]triazolo[4,3-a]pyrimidin-3(2H)-one], the values for the Emax at 30 µM on Human M4 and at Human M2 were 79% and 55%, respectively. The EC50 came to 8 nM at Human M4 and 5410 nM on Human M2 (setting [1]).
On the same counts, the results for `[2H]C1([2H])Oc2ccc(OC3CCN(c4nc5n[nH]c(=O)n5c5c4CCC5)CC3)cc2OC1([2H])[2H]` [Compound A16, 5-(4-((2,3-dihydrobenzo[b][1,4]dioxin-6-yl-2,2,3,3-d4)oxy)piperidin-1-yl)-2,6,7,8-tetrahydro-1H-cyclopenta[e][1,2,4]triazolo[4,3-a]pyrimidin-1-one] are 84%, 48%, 4 nM and 2860 nM.
In the same order, the values of `[2H]C1([2H])Oc2ccc(OC3CCN(c4nc5n[nH]c(=O)n5c(C)c4C)CC3)cc2OC1([2H])[2H]` [Compound A9, 7-(4-((2,3-dihydrobenzo[b][1,4]dioxin-6-yl-2,2,3,3-d4)oxy)piperidin-1-yl)-5,6-dimethyl-[1,2,4]triazolo[4,3-a]pyrimidin-3(2H)-one] are 79%, 45%, 5 nM and 839 nM.
With `[2H]C1([2H])Oc2ccc(OC3CCN(c4nc5nn(C)c(=O)n5c(C5CC5)c4C)CC3)cc2OC1([2H])[2H]` [Compound A12, 5-cyclopropyl-7-(4-((2,3-dihydrobenzo[b][1,4]dioxin-6-yl-2,2,3,3-d4)oxy)piperidin-1-yl)-2,6-dimethyl-[1,2,4]triazolo[4,3-a]pyrimidin-3(2H)-one], on Human M4, the maximal response (Emax) at 30 µM is 103% and the EC50 turned out to be 32 nM. The “Human M2 EC50” value at Human M2 (setting [1]) was “Inactive”.
